According to ChEMBL document CHEMBL1201862, “PubChem BioAssay data set” (2004):
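Briefly, cells in 96-well plates were exposed to five compound concentrations for 48 h, and endpoints were estimated by linear interpolation. GI50 = concentration required for 50% inhibition of growth.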 Activity calls are given as the source filed them. No stated cut-off is given here; in the data, active = GI50 up to about 1.1 µM and inactive = higher.

Legend:
Assay in all cases: inhibition of tumour cell growth, NCI panel, 48 h
RPMI-8226 = system: RPMI-8226
MOLT-4 = system: MOLT-4
U-251 = system: U-251
SK-MEL-5 = system: SK-MEL-5
NCI-H522 = system: NCI-H522
UACC-62 = system: UACC-62
SF-295 = system: SF-295
MDA-MB-231 = system: MDA-MB-231
M14 = system: M14
HOP-62 = system: HOP-62
SW-620 = system: SW-620
ACHN = system: ACHN
MDA-N = system: MDA-N
CCRF-CEM = system: CCRF-CEM
NCI-H226 = system: NCI-H226
786-0 = system: 786-0
UO-31 = system: UO-31
SNB-75 = system: SNB-75
OVCAR-3 = system: OVCAR-3
HCT-116 = system: HCT-116
BT-549 = system: BT-549
SR = system: SR
NCI/ADR-RES = system: NCI/ADR-RES
OVCAR-8 = system: OVCAR-8
SK-OV-3 = system: SK-OV-3
NCI-H23 = system: NCI-H23
SK-MEL-2 = system: SK-MEL-2
PC-3 = system: PC-3
DU-145 = system: DU-145
SNB-19 = system: SNB-19
HL-60 = system: HL-60
UACC-257 = system: UACC-257
EKVX = system: EKVX
RXF 393 = system: RXF 393
HOP-92 = system: HOP-92
A498 = system: A498
A549 = system: A549
LOX IMVI = system: LOX IMVI
K562 = system: K562
SF-539 = system: SF-539
CAKI-1 = system: CAKI-1
MDA-MB-435 = system: MDA-MB-435
Malme-3M = system: Malme-3M
IGROV-1 = system: IGROV-1
HT-29 = system: HT-29
SK-MEL-28 = system: SK-MEL-28
SN12C = system: SN12C
COLO 205 = system: COLO 205
MCF7 = system: MCF7
OVCAR-5 = system: OVCAR-5
HCC 2998 = system: HCC 2998
KM12 = system: KM12
OVCAR-4 = system: OVCAR-4
HCT-15 = system: HCT-15
Hs-578T = system: Hs-578T
TK-10 = system: TK-10
NCI-H460 = system: NCI-H460
SF-268 = system: SF-268
T47D = system: T47D

`O=C1CCCC1CC(CN1CCOCC1)Sc1nnnn1-c1ccccc1` (stereo unspecified) was tested, and the GI50 (RPMI-8226) was 42.1 µM (inactive), the GI50 (MOLT-4) was > 100 µM (inactive) and the GI50 (U-251) was > 100 µM (inactive). The GI50 (SK-MEL-5) was > 100 µM (inactive), the GI50 (NCI-H522) was > 100 µM (inactive) and the GI50 (UACC-62) was > 100 µM (inactive). The GI50 (SF-295) was > 100 µM (inactive), the GI50 (MDA-MB-231) was 72.3 µM (inactive) and the GI50 (M14) was > 100 µM (inactive). For the same molecule, the GI50 (HOP-62) was > 100 µM (inactive), the GI50 (SW-620) was > 100 µM (inactive) and the GI50 (ACHN) was 31 µM (inactive). The GI50 (MDA-N) was > 100 µM (inactive), the GI50 (CCRF-CEM) was > 100 µM (inactive) and the GI50 (NCI-H226) was > 100 µM (inactive). For the same molecule, the GI50 (786-0) was > 100 µM (inactive), the GI50 (UO-31) was 96.8 µM (inactive) and the GI50 (SNB-75) was 21.3 µM (inactive). For the same molecule, the GI50 (OVCAR-3) was > 100 µM (inactive), the GI50 (HCT-116) was > 100 µM (inactive) and the GI50 (BT-549) was > 100 µM (inactive). The GI50 (SR) was > 100 µM (inactive), the GI50 (NCI/ADR-RES) was > 100 µM (inactive) and the GI50 (OVCAR-8) was > 100 µM (inactive). For the same molecule, the GI50 (SK-OV-3) was > 100 µM (inactive), the GI50 (NCI-H23) was > 100 µM (inactive) and the GI50 (SK-MEL-2) was > 100 µM (inactive). The GI50 (PC-3) was > 100 µM (inactive), the GI50 (DU-145) was 77.4 µM (inactive) and the GI50 (SNB-19) was > 100 µM (inactive). The GI50 (HL-60) was 16.7 µM (inactive), the GI50 (UACC-257) was > 100 µM (inactive) and the GI50 (EKVX) was 28.9 µM (inactive). For the same molecule, the GI50 (RXF 393) was 34.6 µM (inactive), the GI50 (HOP-92) was > 100 µM (inactive) and the GI50 (A498) was > 100 µM (inactive). The GI50 (A549) was > 100 µM (inactive), the GI50 (LOX IMVI) was > 100 µM (inactive) and the GI50 (K562) was > 100 µM (inactive). The GI50 (SF-539) was > 100 µM (inactive), the GI50 (CAKI-1) was 16.8 µM (inactive) and the GI50 (MDA-MB-435) was > 100 µM (inactive). For the same molecule, the GI50 (Malme-3M) was > 100 µM (inactive), the GI50 (IGROV-1) was > 100 µM (inactive) and the GI50 (HT-29) was 31 µM (inactive). For the same molecule, the GI50 (SK-MEL-28) was > 100 µM (inactive), the GI50 (SN12C) was > 100 µM (inactive) and the GI50 (COLO 205) was 16.6 µM (inactive). For the same molecule, the GI50 (MCF7) was 18.2 µM (inactive), the GI50 (OVCAR-5) was 72.6 µM (inactive) and the GI50 (HCC 2998) was > 100 µM (inactive). The GI50 (KM12) was > 100 µM (inactive) and the GI50 (OVCAR-4) was > 100 µM (inactive).

`COc1ccc(C2C3=C(CCCC3=O)N(c3ccccc3)C3=C2C(=O)CCC3)cc1` was tested, and the GI50 (RPMI-8226) was > 100 µM (inactive), the GI50 (MOLT-4) was > 100 µM (inactive) and the GI50 (HCT-15) was over 100 µM. For the same molecule, the GI50 (U-251) was 75.7 µM (inactive), the GI50 (SK-MEL-5) was > 10 µM (inactive) and the GI50 (UACC-62) was 87.1 µM (inactive). For the same molecule, the GI50 (M14) was > 100 µM (inactive), the GI50 (Hs-578T) was 43.2 µM (inactive) and the GI50 (TK-10) was > 100 µM (inactive). For the same molecule, the GI50 (SW-620) was > 100 µM (inactive), the GI50 (ACHN) was > 100 µM (inactive) and the GI50 (CCRF-CEM) was > 100 µM (inactive). For the same molecule, the GI50 (NCI-H226) was 21.6 µM (inactive), the GI50 (786-0) was 45.6 µM (inactive) and the GI50 (UO-31) was > 100 µM (inactive). For the same molecule, the GI50 (SNB-75) was 28.2 µM (inactive), the GI50 (OVCAR-3) was 89.7 µM (inactive) and the GI50 (BT-549) was 29.4 µM (inactive). The GI50 (SR) was > 100 µM (inactive), the GI50 (NCI/ADR-RES) was > 100 µM (inactive) and the GI50 (SK-OV-3) was 50.6 µM (inactive). For the same molecule, the GI50 (NCI-H23) was > 100 µM (inactive), the GI50 (PC-3) was > 100 µM (inactive) and the GI50 (SNB-19) was 58.9 µM (inactive). For the same molecule, the GI50 (HL-60) was > 100 µM (inactive), the GI50 (NCI-H460) was > 100 µM (inactive) and the GI50 (EKVX) was > 100 µM (inactive). For the same molecule, the GI50 (RXF 393) was 19.5 µM (inactive), the GI50 (HOP-92) was 29 µM (inactive) and the GI50 (A498) was > 100 µM (inactive). The GI50 (A549) was > 100 µM (inactive), the GI50 (LOX IMVI) was > 100 µM (inactive) and the GI50 (K562) was > 100 µM (inactive). The GI50 (SF-539) was > 100 µM (inactive), the GI50 (CAKI-1) was > 100 µM (inactive) and the GI50 (IGROV-1) was > 100 µM (inactive). For the same molecule, the GI50 (HT-29) was > 100 µM (inactive), the GI50 (SK-MEL-28) was > 100 µM (inactive) and the GI50 (SN12C) was > 100 µM (inactive). For the same molecule, the GI50 (MCF7) was 43.8 µM (inactive), the GI50 (OVCAR-5) was > 100 µM (inactive) and the GI50 (SF-268) was 79.4 µM (inactive). For the same molecule, the GI50 (KM12) was > 100 µM (inactive) and the GI50 (OVCAR-4) was 61.5 µM (inactive).

For `COc1cc(C(=O)N2CCN(C(=O)c3cc(OC)c(OC)c(OC)c3)C2=S)cc(OC)c1OC`, the GI50 (RPMI-8226) was 3.66 µM (inactive) and the GI50 (UO-31) was 0.234 µM (active).

In the case of `CCCCCCCCC#CCCCCCCC(F)C(=O)O` (stereo unspecified), the GI50 (RPMI-8226) is reported as 29.8 µM (inactive), the GI50 (T47D) is reported as > 100 µM (inactive) and the GI50 (MOLT-4) is reported as > 100 µM (inactive). For the same molecule, the GI50 (HCT-15) was over 100 µM, the GI50 (U-251) was > 100 µM (inactive) and the GI50 (SK-MEL-5) was > 100 µM (inactive). The GI50 (NCI-H522) was > 100 µM (inactive), the GI50 (SF-295) was > 100 µM (inactive) and the GI50 (M14) was > 100 µM (inactive). The GI50 (Hs-578T) was > 100 µM (inactive), the GI50 (HOP-62) was > 100 µM (inactive) and the GI50 (TK-10) was > 100 µM (inactive). For the same molecule, the GI50 (SW-620) was > 100 µM (inactive), the GI50 (ACHN) was > 100 µM (inactive) and the GI50 (CCRF-CEM) was > 100 µM (inactive). The GI50 (NCI-H226) was > 100 µM (inactive), the GI50 (786-0) was > 100 µM (inactive) and the GI50 (UO-31) was > 100 µM (inactive). For the same molecule, the GI50 (SNB-75) was > 100 µM (inactive), the GI50 (OVCAR-3) was > 100 µM (inactive) and the GI50 (HCT-116) was > 100 µM (inactive). For the same molecule, the GI50 (SR) was > 100 µM (inactive), the GI50 (NCI/ADR-RES) was > 100 µM (inactive) and the GI50 (OVCAR-8) was > 100 µM (inactive). The GI50 (SK-OV-3) was > 100 µM (inactive), the GI50 (NCI-H23) was > 100 µM (inactive) and the GI50 (SK-MEL-2) was > 100 µM (inactive). For the same molecule, the GI50 (PC-3) was > 100 µM (inactive), the GI50 (DU-145) was > 100 µM (inactive) and the GI50 (SNB-19) was > 100 µM (inactive). For the same molecule, the GI50 (HL-60) was 25 µM (inactive), the GI50 (UACC-257) was > 100 µM (inactive) and the GI50 (NCI-H460) was > 100 µM (inactive). For the same molecule, the GI50 (EKVX) was 43.1 µM (inactive), the GI50 (RXF 393) was > 100 µM (inactive) and the GI50 (HOP-92) was > 100 µM (inactive). The GI50 (A498) was > 100 µM (inactive), the GI50 (A549) was > 100 µM (inactive) and the GI50 (LOX IMVI) was > 100 µM (inactive). The GI50 (K562) was 40 µM (inactive), the GI50 (SF-539) was > 100 µM (inactive) and the GI50 (MDA-MB-435) was > 100 µM (inactive). The GI50 (Malme-3M) was > 100 µM (inactive), the GI50 (IGROV-1) was > 100 µM (inactive) and the GI50 (HT-29) was > 100 µM (inactive). The GI50 (SK-MEL-28) was > 100 µM (inactive), the GI50 (COLO 205) was > 100 µM (inactive) and the GI50 (OVCAR-5) was > 100 µM (inactive). The GI50 (HCC 2998) was > 100 µM (inactive), the GI50 (SF-268) was > 100 µM (inactive) and the GI50 (KM12) was > 100 µM (inactive). The GI50 (OVCAR-4) was 83.6 µM (inactive).
